Data set [1] in a line: Acute toxicity (LD50, Litchfield-Wilcoxon method). As to conditions: mouse, in vivo, male mice. The protocol:
LD50 values of oxidized derivatives of steryl-β-D-glucoside and acetyl derivatives thereof were calculated by Litchfield-Wilcoxon method using male mice.

Data set [2] relates to bleeding at the end of mouse's tail. Kind of data set: Hemostatic effects: influences on bleeding at the end of mouse's tail. The class given is in vivo. As to conditions: vs untreated control. The protocol:
Influences on bleeding at the end of mouse's tail:
Groups each comprising 10 male mice were employed. According to a method of Motohashi, et al. [Journal of Tokyo Jikei-kai Medical College, 75 (5) (1959)], the end of tail (1 cm) of each mouse was cut out with a sharp surgical knife and the blood threading from the wound into water was observed. A time required until the bleeding stopped completely was measured and rate of readuction of the bleeding time as compared with that of untreated control group was calculated.

The subject of data set [3] is hemorrage in mouse's lung. Kind of data set: Capillary stabilizing effects: inhibiting hemorrage in mouse's lung caused by pressure reduction. It is filed as in vivo. The note with it: pressure reduction to 50±0.5 mmHg/15 sec., score method; for ED50: Mus musculus, oral administration. The protocol:
C. Capillary stabilizing effects:
Effects of inhibiting hemorrage in mouse's lung:
Degree of hemorrage in mouse's lung caused by pressure reduction to 50±0.5 mmHg/15 sec. was determined by a method of G. J. Mojovski, et al. [J. Pharm. Exp. Therap., 80, 1, (1944)] (score method). From the inhibition rate calculated as compared with untreated control group, ED50 of the sample was calculated.

Setting [4] is: ip, intraperitoneal administration, read-out: LD50 Intraperitoneal administration.
Setting [5] is: oral administration, read-out: LD50 Oral administration.

Molecules are shown by their SMILES. Where two headings read alike, the source gives them in different places.

What is called ED50 is the dose at which the effect has come halfway, by size or by number of responders. Read a high ED50 as a need for a large dose.

As to `CC(=O)OCC1OC(OC2CCC3(C)C(=CC(=O)C4C3CCC3(C)C(C(C)CCCC(C)C)CCC43)C2)C(OC(C)=O)C(OC(C)=O)C1OC(C)=O` [Compound 5, (7-Ketocholesteryl)-2,3,4,6-tetra-0-acetyl-β-D-glucopyranoside], the figures for the LD50 in data set [1] (setting [4]) and in data set [1] (setting [5]) were over 15000 mg/kg and over 12000 mg/kg, respectively.
Regarding `CCC(CCC(C)C1CCC2C3C(=O)C=C4CC(OC5OC(COC(C)=O)C(OC(C)=O)C(OC(C)=O)C5OC(C)=O)CCC4(C)C3CCC12C)C(C)C` (centres unmarked) [Compound 6], the “Reduction rate (of bleeding time)” value in data set [2] (0.1 mg/Kg i.p.) amounted to 22%. In data set [3], this compound had a 50% effective dose (ED50) of 62 mg/kg.
In the case of `CC(C)CCCC(C)C1CCC2C3C(=O)C=C4CC(OC5OC(CO)C(O)C(O)C5O)CCC4(C)C3CCC12C` [Compound 8, (7-Ketocholesteryl)-β-D-glucopyranoside], the LD50 in data set [1] (setting [4]) is over 15000 mg/kg; in data set [1] (setting [5]), over 12000 mg/kg. Further, in data set [2] (0.1 mg/Kg i.p.), the “Reduction rate (of bleeding time)” value amounted to 36%.
In turn, `CCC(C=CC(C)C1CCC2C3C(=O)C=C4CC(OC5OC(CO)C(O)C(O)C5O)CCC4(C)C3CCC12C)C(C)C` (centres unmarked) [Compound 10] registered a 50% effective dose (ED50) in data set [3] of 43 mg/kg.
Turning to `CC(=O)OCC1OC(OC2CCC3(C)C(=CC(O)C4C3CCC3(C)C(C(C)CCCC(C)C)CCC43)C2)C(OC(C)=O)C(OC(C)=O)C1OC(C)=O` [Compound 11, (7-hydroxycholesteryl)-2,3,4,6-tetra-0-acetyl-β-D-glucopyranoside], the “Reduction rate (of bleeding time)” value in data set [2] (0.1 mg/Kg i.p.) turned out to be 18%.
For the compound `CCC(CCC(C)C1CCC2C3C(O)C=C4CC(OC5OC(COC(C)=O)C(OC(C)=O)C(OC(C)=O)C5OC(C)=O)CCC4(C)C3CCC12C)C(C)C` (centres unmarked) [Compound 12], the LD50 in data set [1] (setting [4]) was over 15000 mg/kg; in data set [1] (setting [5]) it was over 12000 mg/kg.
On to `CC(C)CCCC(C)C1CCC2C3C(O)C=C4CC(OC5OC(CO)C(O)C(O)C5O)CCC4(C)C3CCC12C` [Compound 14, (7-Hydroxycholesteryl)-β-D-glucopyranoside], for which the 50% effect level in data set [3] (ED50) was put at a dose of 38 mg/kg.
On to `CCC(C=CC(C)C1CCC2C3C(O)C=C4CC(OC5OC(CO)C(O)C(O)C5O)CCC4(C)C3CCC12C)C(C)C` (centres unmarked) [Compound 16], for which the LD50 was over 15000 mg/kg in data set [1] (setting [4]) and over 12000 mg/kg in data set [1] (setting [5]). Also, the “Reduction rate (of bleeding time)” value in data set [2] (0.1 mg/Kg i.p.) is given as 23%.
In the case of `CN1C2=CC(=O)/C(=N\NC(N)=O)C=C2CC1S(=O)(=O)[O-].[Na+]` (centres unmarked) [Sodium carbazochromesulfonate, reference compound], the “Reduction rate (of bleeding time)” value in data set [2] (10.0 mg/Kg i.p.) stood at 21%. The ED50 oral administration in data set [3] was over 400 mg/kg.

Source of the values: patent US4402948A, “Steroid glycoside compounds and methods of use” (Nippon Shinyaku Co., Ltd., priority 1980, dated 1983).
